For this assay, the target named is T1, human glutamate receptor GluR1-flip (Homo sapiens, UniProt P42261).
T1 construct: expressed in transfected cells; host or cells: Chinese Hamster Ovary (CHO) cells
Description: Whole cell patch clamp on CHO cells expressing human GluR1-flip; glutamate-induced current desensitization. The assay is classed as cell-based. The note with it: 1 mM test compound co-applied with 10 mM L-glutamate after 30 seconds pre-incubation, hGluR1(i), whole cell voltage clamp. The text has this:
In this experiment we investigated the influence of the test compounds on the membrane currents when determined electrophysiologically on Chinese Hamster Ovary (CHO) cells capable of expressing the human glutamate receptor GluR1-flip, obtained essentially as described by Fletcher E J & Lodge D, Pharmacol. Ther. 1996 70 (1) 65-89, the current through the channels being recorded using patch clamp technique in whole cell voltage clamp mode.
Current responses were induced by applying L-glutamate at a saturating concentration of 10 mM, and the modulatory effect of the test compound was evaluated by co-applying the test compound and L-glutamate upon a 30 seconds pre-incubation period, and comparing with […].

Molecules are shown by their SMILES.

T1 sequence (P42261 19-906 isoform P42261-2 limits assumed): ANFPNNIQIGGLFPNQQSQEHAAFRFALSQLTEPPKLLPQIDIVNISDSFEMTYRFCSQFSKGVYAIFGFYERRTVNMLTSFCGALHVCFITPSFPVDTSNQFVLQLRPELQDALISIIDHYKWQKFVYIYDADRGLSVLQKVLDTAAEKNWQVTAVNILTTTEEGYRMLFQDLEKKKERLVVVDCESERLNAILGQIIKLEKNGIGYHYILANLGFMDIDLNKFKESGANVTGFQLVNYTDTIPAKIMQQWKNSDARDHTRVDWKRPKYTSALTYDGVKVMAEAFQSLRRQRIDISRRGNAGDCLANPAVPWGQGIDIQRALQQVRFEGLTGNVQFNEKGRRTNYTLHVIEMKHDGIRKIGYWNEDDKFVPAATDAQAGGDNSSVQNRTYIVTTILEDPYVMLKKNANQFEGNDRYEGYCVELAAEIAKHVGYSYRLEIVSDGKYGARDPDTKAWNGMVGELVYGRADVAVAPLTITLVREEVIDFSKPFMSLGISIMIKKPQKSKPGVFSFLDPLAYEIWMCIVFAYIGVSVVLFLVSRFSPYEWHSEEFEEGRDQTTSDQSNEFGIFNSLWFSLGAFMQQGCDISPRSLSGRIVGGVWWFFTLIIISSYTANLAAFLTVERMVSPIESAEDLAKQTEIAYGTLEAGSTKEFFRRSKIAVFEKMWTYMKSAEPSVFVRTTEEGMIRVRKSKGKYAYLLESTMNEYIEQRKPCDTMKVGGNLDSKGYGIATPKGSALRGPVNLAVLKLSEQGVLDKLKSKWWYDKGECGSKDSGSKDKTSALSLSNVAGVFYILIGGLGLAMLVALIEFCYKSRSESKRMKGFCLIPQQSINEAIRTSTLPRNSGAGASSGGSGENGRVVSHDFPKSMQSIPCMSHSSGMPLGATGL

For `O=C(c1ccc2nccnc2c1)N1CCCCC1` [Reference compound, Piperidin-1-yl-quinoxalin-6-yl-methanone], the degree of desensitization was 98.0+/−0.8%. Then `CC1CCCN(C(=O)c2ccc3nccnc3c2)C1` (racemic) [Compound A4, (±)-(3-Methyl-piperidin-1-yl)-guinoxalin-6-yl-methanone], with 95.2+/−0.2%.

The values above are taken from patent publication US20090286797A1, “Novel Quinoxaline Derivatives and Their Medical Use” (priority 2005, published 2009).
